Literature values in patent US20140171511A1, “Cough Reducing Product” (priority 2011, published 2014).

Assays:
[1] = relative to capsaicin, used to calculate equivalent dose
[2] = inhaled capsaicin as research tool, past 2 decades
[3] = tested on: IBS and gut pain sensitivity; details: regular intake of capsaicin powder

Structure (SMILES)	Typical equivalent strength [1] [%]	serious adverse reactions [2]	IBS and gut pain sensitivity [3]
COc1cc(CNC(=O)CCCC/C=C/C(C)C)ccc1O [Capsaicin, 8-Methyl-N-vanillyl-trans-6-nonenamide]	100	no serious adverse reactions reported	improvement
COc1cc(CNC(=O)CCCCCC(C)C)ccc1O [Nordihydrocapsaicin]	10	–	–
